Test results published in patent US20240358692A1, “TREATMENT OF SCLERODERMA” (Aisa Pharma, Inc., priority 2023, published 2024).

System: participants with SSc-RP
Test: Average severity of weekly RP attacks (VAS 0-10)
Type: in vivo, human
Conditions: Tadalafil 5 mg; for Average Severity of Weekly Symptomatic RP Attacks, Change from Baseline, Mean / Average Severity of Weekly Symptomatic RP Attacks, Change from Baseline, Median / Average Severity of Weekly Symptomatic RP Attacks, Percent Change from Baseline, Mean / Average Severity of Weekly Symptomatic RP Attacks, Percent Change from Baseline, Median: 2nd Baseline RCS subgroup, ITT Part A, last 7 days of dosing period
Text: The absolute change in average severity of weekly RP attacks (VAS 0-10 cm scale) from baseline to the end of each Dosing Period was and will be a secondary outcome variable. The sponsor-developed participant-informed diary will be used to record data. Average severity of weekly RP attacks is defined as the total severity scores of RP attacks divided by total number of RP attacks within the last 7 days of each dosing period. Total severity scores of RP attacks during the last 7 days of screening period divided by the total number of RP attacks will be used as baseline for the analysis of all periods. The variable will be calculated similar to frequency data as before.

[1] = all attacks, by Baseline RCS: second subgroup of Table C-7, ITT Part A

SMILES: CN1CC(=O)N2[C@H](c3ccc4c(c3)OCO4)c3[nH]c4ccccc4c3C[C@@H]2C1=O [Tadalafil]
- Average Severity of Weekly Symptomatic RP Attacks, Change from Baseline, Mean: −0.60
- Average Severity of Weekly Symptomatic RP Attacks, Change from Baseline, Median: −0.60
- Average Severity of Weekly Symptomatic RP Attacks, Percent Change from Baseline, Mean: −10.43%
- Average Severity of Weekly Symptomatic RP Attacks, Percent Change from Baseline, Median: −10.43%
- Average Severity of Weekly Symptomatic RP Attacks, Change from Baseline, Mean (Excluding Outliers): −1.32
- Average Severity of Weekly Symptomatic RP Attacks, Change from Baseline, Median (Excluding Outliers): −1.32
- Average Severity of Weekly Symptomatic RP Attacks, Percent Change from Baseline, Mean (Excluding Outliers): −22.01%
- Average Severity of Weekly Symptomatic RP Attacks, Percent Change from Baseline, Median (Excluding Outliers): −22.01%
- Average Severity (0-10) of weekly RP attacks, Mean [1]: 7.02
- Average Severity (0-10) of weekly RP attacks, Median [1]: 7.02
- Average severity of weekly RP attacks, Change from Baseline, Mean [1]: −0.47
- Average severity of weekly RP attacks, Change from Baseline, Median [1]: −0.47
- Average severity of weekly RP attacks, Percent Change from Baseline, Mean [1]: −8.97%
- Average severity of weekly RP attacks, Percent Change from Baseline, Median [1]: −8.97%
